Results on 10 compounds are retold here after ChEMBL document CHEMBL1125047, “Novel glutamic acid derived cholecystokinin receptor ligands” (J Med Chem, 1990).

What is called IC50 is the concentration that inhibits the measured activity by half. A lower IC50 goes with greater potency in that assay.

This experiment has as its target T1, Cholecystokinin receptor type A (Rattus norvegicus, UniProt P30551).
T1 sequence (P30551 whole entry): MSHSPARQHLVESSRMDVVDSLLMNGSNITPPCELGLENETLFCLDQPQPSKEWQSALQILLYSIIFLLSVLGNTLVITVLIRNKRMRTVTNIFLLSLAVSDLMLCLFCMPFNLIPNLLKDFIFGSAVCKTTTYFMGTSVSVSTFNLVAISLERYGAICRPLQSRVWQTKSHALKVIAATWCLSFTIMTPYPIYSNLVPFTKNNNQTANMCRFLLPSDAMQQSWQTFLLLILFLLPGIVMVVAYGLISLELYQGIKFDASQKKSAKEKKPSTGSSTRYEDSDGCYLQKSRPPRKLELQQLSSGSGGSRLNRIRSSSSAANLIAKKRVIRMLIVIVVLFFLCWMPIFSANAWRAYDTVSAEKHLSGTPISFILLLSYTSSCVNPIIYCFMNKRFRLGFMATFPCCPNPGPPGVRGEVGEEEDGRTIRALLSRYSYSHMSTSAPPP
Put plainly: Inhibition of binding of [125I]- CCK-33 to rat pancreas.
Take `CCCCCN(CCCCC)C(=O)C(CCC(=O)OCc1ccccc1)NC(=O)Nc1ccc(Cl)cc1` (stereo not given): the IC50 worked out at 9300 nM. Then `CCCCCN(CCCCC)C(=O)C(CCC(=O)OCC)NC(=O)Nc1ccc(Cl)cc1` (stereo not given), with 1200 nM; and `CCCCCN(CCCCC)C(=O)C(CCC(=O)N1CCCC1)NC(=O)Nc1ccc(Cl)cc1` (stereo not given), with 680 nM; and `O=C(O)CCC(NC(=O)c1cc2ccccc2[nH]1)C(=O)N(C1CCCCC1)C1CCCCC1` (single isomer, unassigned), with 59 nM. Turning to `CCCCCN(CCCCC)C(=O)C(CCC(=O)O)NC(=O)Nc1cccc(OC)c1` (single isomer, unassigned; 13), the half-inhibitory concentration (IC50) was 540 nM.

As to `CCCCCN(CCCCC)C(=O)C(CCC(=O)O)NC(=O)Nc1cccc(OC)c1` (single isomer, unassigned; 14), the IC50 is 4.5 nM.

The compound `CCCCCN(CCCCC)C(=O)C(CCC(=O)N1CCCC1)NC(=O)Nc1cccc(OC)c1` (single isomer, unassigned; 15) registered an IC50 of 170 nM. For `CCCCCN(CCCCC)C(=O)C(CCC(=O)N1CCCC1)NC(=O)Nc1cccc(OC)c1` (single isomer, unassigned; 16), the IC50 worked out at 120 nM. Then `CCCCCN(CCCCC)C(=O)C(CCC(=O)O)NC(=O)c1ccc(Cl)c(Cl)c1` (stereo not given) [LORGLUMIDE], with 18 nM; and `CCCN(CCC)C(=O)C(CCC(=O)O)NC(=O)c1ccccc1` (stereo not given) [PROGLUMIDE], with 250000 nM.
